Reference: patent publication US8575156B2, “Cyclic inhibitors of 11β-hydroxysteroid dehydrogenase 1” (Vitae Pharmaceuticals, Inc., priority 2007, dated 2013)
Read-outs that look alike come from different tables or passages of the source.

Target: 11β-HSD1 (Homo sapiens, UniProt P28845)
Test: biochemical
Details: for IC50: IC50 Range, Biological Test Example 1, microsomes from CHO cells overexpressing human 11β-HSD1; for inhibition at 0.1 µM: read-out: Average % inhibition at 100 nM, Biological Test Example 1

11β-HSD1, sequence (P28845 whole entry): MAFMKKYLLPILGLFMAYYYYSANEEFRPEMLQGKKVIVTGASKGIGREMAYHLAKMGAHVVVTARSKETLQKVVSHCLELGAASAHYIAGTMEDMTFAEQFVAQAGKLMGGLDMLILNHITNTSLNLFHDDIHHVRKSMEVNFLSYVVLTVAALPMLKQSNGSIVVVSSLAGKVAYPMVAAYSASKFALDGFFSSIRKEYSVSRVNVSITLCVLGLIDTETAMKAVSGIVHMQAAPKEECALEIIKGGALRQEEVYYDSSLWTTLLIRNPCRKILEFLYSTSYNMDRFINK

Compound	IC50	inhibition at 0.1 µM (100 nM compound)	inhibition at 0.1 µM (100 nM)	inhibition at 0.1111 µM (read-out: Average % inhibition at 111.1 nM, Biological Test Example 1, 111.1 nM)
C[C@@H](c1ccc(-c2ccc(F)cc2)cc1)N1CC[C@](CCCNS(C)(=O)=O)(c2ccccc2)OC1=O [EXAMPLE 270, N-(3-((R)-3-((S)-1-(4′-fluorobiphenyl-4-yl)ethyl)-2-oxo-6-phenyl-1,3-oxazinan-6-yl)propyl)methanesulfonamide]	< 0.1 µM	96.1%		
C[C@@H](c1ccc(-c2ccc(F)cc2F)cc1)N1CC[C@](CCCOC(N)=O)(c2ccc(F)cc2)OC1=O [EXAMPLE 272, 3-((R)-3-((S)-1-(2′,4′-difluorobiphenyl-4-yl)ethyl)-6-(4-fluorophenyl)-2-oxo-1,3-oxazinan-6-yl)propyl carbamate]	< 0.1 µM	93.8%		
C[C@@H](c1ccccc1F)N1CC[C@](CCCO)(c2ccc(F)cc2)OC1=O [EXAMPLE 284, (R)-6-(4-fluorophenyl)-3-((S)-1-(2-fluorophenyl)ethyl)-6-(3-hydroxypropyl)-1,3-oxazinan-2-one]	< 0.1 µM	97.7%		
C[C@@H](c1ccc(F)cc1)N1CC[C@](CCCO)(c2ccc(F)cc2)OC1=O [EXAMPLE 285, (R)-6-(4-fluorophenyl)-3-((S)-1-(4-fluorophenyl)ethyl)-6-(3-hydroxypropyl)-1,3-oxazinan-2-one]	< 0.1 µM	96.2%		
C[C@@H](c1ccc(Cl)cc1)N1CC[C@](CCC(N)=O)(c2ccccc2)OC1=O [EXAMPLE 287, 3-((R)-3-((S)-1-(4-chlorophenyl)ethyl)-2-oxo-6-phenyl-1,3-oxazinan-6-yl)propanamide]	< 0.1 µM	89.8%		
C[C@@H](c1cccc(F)c1)N1CC[C@](CCC(N)=O)(c2ccc(F)cc2)OC1=O [EXAMPLE 288, 3-((R)-6-(4-fluorophenyl)-3-((S)-1-(3-fluorophenyl)ethyl)-2-oxo-1,3-oxazinan-6-yl)propanamide]	< 0.1 µM	72.4%		
C[C@@H](c1cccc(C(F)(F)F)c1)N1CC[C@](CCCO)(c2ccc(F)cc2)OC1=O [EXAMPLE 293, (R)-6-(4-fluorophenyl)-6-(3-hydroxypropyl)-3-((S)-1-(3-(trifluoromethyl)phenyl)ethyl)-1,3-oxazinan-2-one]	< 0.1 µM	94%		

More lines, now with the values ahead:

IC50	inhibition at 0.1 µM (100 nM compound)	inhibition at 0.1 µM (100 nM)	inhibition at 0.1111 µM (read-out: Average % inhibition at 111.1 nM, Biological Test Example 1, 111.1 nM)	Compound
< 0.1 µM	97.2%			C[C@@H](c1ccc(C(F)(F)F)cc1)N1CC[C@](CCCO)(c2ccc(F)cc2)OC1=O [EXAMPLE 294, (R)-6-(4-fluorophenyl)-6-(3-hydroxypropyl)-3-((S)-1-(4-(trifluoromethyl)phenyl)ethyl)-1,3-oxazinan-2-one]
< 0.1 µM	71.7%			C[C@@H](c1cccc(C(F)(F)F)c1)N1CC[C@](CCC(N)=O)(c2ccc(F)cc2)OC1=O [EXAMPLE 299, 3-((R)-6-(4-fluorophenyl)-2-oxo-3-((S)-1-(3-(trifluoromethyl)phenyl)ethyl)-1,3-oxazinan-6-yl)propanamide]
< 0.1 µM	86.7%			COc1ccc([C@H](C)N2CC[C@](CCNS(C)(=O)=O)(c3ccc(F)cc3)OC2=O)cc1 [EXAMPLE 301, N-(2-((S)-6-(4-fluorophenyl)-3-((S)-1-(4-methoxyphenyl)ethyl)-2-oxo-1,3-oxazinan-6-yl)ethyl)methanesulfonamide]
> 1 µM		25%	8.6%	C[C@@H](c1ccc(S(C)(=O)=O)cc1)N1CC[C@](CCO)(c2ccc(F)cc2)OC1=O [EXAMPLE 308, (S)-6-(4-fluorophenyl)-6-(2-hydroxyethyl)-3-((S)-1-(4-(methylsulfonyl)phenyl)ethyl)-1,3-oxazinan-2-one]
< 0.1 µM		77.5%		C[C@@H](c1ccc(-c2ccc(F)cc2)cc1)N1CC[C@](CCCOP(=O)(O)O)(c2ccccc2)OC1=O [EXAMPLE 310, 3-((R)-3-((S)-1-(4′-fluorobiphenyl-4-yl)ethyl)-2-oxo-6-phenyl-1,3-oxazinan-6-yl)propyl dihydrogen phosphate]
